Each block holds one compound with its values, some of them ahead of it.
What was measured:
[1] = molecular target: T1, Histone-lysine N-methyltransferase, H3 lysine-79 specific (Homo sapiens, UniProt Q8TEK3); test: Inhibition of DOT1L (2 to 416 residues) (unknown origin) using biotinylated nucleosomes as substrate preincubated for 30 mins followed by substrate addition in presence of [3H-Me]SAM by scintillation proximity assay
Target sequence in this assay (Q8TEK3 whole entry, the tested form may be a part): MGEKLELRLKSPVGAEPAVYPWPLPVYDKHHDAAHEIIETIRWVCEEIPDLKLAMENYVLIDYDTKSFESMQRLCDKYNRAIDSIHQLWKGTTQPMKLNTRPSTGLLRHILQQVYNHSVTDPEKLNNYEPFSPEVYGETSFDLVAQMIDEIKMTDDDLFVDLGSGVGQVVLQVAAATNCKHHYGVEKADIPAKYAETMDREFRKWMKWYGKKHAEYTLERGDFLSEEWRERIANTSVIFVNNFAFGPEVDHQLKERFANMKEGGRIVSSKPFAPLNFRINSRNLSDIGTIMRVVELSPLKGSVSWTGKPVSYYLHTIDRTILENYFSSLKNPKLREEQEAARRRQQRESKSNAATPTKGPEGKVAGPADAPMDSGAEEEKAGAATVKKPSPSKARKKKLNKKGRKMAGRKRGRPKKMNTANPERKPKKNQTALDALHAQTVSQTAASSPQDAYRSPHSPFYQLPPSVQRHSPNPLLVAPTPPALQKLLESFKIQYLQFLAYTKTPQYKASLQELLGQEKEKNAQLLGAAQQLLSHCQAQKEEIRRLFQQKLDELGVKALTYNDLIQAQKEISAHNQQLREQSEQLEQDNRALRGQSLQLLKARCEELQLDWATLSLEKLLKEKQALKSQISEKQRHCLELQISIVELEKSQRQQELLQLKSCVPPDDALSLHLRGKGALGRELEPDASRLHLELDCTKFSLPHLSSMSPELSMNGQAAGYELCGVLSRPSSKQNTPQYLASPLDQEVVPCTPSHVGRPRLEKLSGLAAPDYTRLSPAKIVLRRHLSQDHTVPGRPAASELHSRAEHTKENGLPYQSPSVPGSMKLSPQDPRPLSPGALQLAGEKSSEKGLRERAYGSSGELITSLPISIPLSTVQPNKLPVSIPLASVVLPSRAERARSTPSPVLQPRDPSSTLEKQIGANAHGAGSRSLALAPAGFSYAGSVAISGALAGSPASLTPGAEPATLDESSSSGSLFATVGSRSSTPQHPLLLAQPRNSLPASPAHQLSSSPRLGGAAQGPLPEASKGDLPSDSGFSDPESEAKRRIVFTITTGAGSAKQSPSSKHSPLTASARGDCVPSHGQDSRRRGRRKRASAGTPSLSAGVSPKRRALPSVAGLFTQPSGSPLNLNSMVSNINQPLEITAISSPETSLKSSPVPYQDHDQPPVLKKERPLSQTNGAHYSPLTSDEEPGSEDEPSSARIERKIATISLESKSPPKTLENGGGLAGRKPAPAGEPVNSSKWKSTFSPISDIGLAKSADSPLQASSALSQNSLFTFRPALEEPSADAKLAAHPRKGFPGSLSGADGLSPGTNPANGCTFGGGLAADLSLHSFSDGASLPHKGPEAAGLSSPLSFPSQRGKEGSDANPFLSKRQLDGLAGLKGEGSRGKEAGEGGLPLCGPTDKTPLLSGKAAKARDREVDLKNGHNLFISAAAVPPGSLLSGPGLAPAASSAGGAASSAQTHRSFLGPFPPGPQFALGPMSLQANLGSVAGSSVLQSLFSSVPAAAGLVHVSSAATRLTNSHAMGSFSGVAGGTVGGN

[2] = molecular target: T1, Histone-lysine N-methyltransferase, H3 lysine-79 specific; test: Binding affinity to human Avi-tagged biotinylated DOT1L (2 to 416 residues) assessed as target residence time at 100 nM by surface plasmon resonance assay
Target sequence in this assay (Q8TEK3 whole entry, looked up, the tested form may be a part): as the sequence (Q8TEK3 whole entry, the tested form may be a part) above

MV4-11 = test: Antiproliferative activity against human MV4-11 cells harboring MLL-AF4 treated for 6 hrs measured after 8 days by Celltiter-Glo reagent based assay; format: functional, cell-based
[3] = molecular target: T1, Histone-lysine N-methyltransferase, H3 lysine-79 specific; test: Inhibition of DOT1L in human HeLa cells assessed as reduction in H3K79me2 level after 72 hrs by ELISA; format: cell-based
Target sequence in this assay (Q8TEK3 whole entry, the tested form may be a part): as above

[4] = molecular target: T1, Histone-lysine N-methyltransferase, H3 lysine-79 specific; test: Inhibition of DOT1L in human MOLM13 cells assessed as suppression of HoxA9 gene after 72 hrs by luciferase reporter gene assay; format: cell-based
Target sequence in this assay (Q8TEK3 whole entry, the tested form may be a part): as above

[5] = molecular target: T1, Histone-lysine N-methyltransferase, H3 lysine-79 specific; test: Competitive inhibition of DOT1L (2 to 416 residues) (unknown origin) using biotinylated nucleosomes as substrate preincubated for 30 mins followed by substrate addition in presence of [3H-Me]SAM by scintillation proximity assay
Target sequence in this assay (Q8TEK3 whole entry, the tested form may be a part): as above

IC50 ([1]; read-out: IC50): 0.15 nM
SMILES: CN(CCCNC(=O)CNC(=O)Nc1ccc2ccn(-c3ccccc3Cl)c2c1)[C@@H]1CCCN(c2ncnc3[nH]ccc23)C1

IC50 ([1]; read-out: IC50): 240000 nM
SMILES: N[C@@H]1CCCN(c2ncnc3[nH]ccc23)C1

IC50 ([1]; read-out: IC50): 141000 nM
SMILES: CN[C@@H]1CCCN(c2ncnc3[nH]ccc23)C1

TIME [2]: > 5 h
IC50 (MV4-11): 15 nM
SMILES: CC(C)N(C[C@H]1O[C@@H](n2cnc3c(N)ncnc32)[C@H](O)[C@@H]1O)[C@H]1C[C@@H](CCc2nc3cc(C(C)(C)C)ccc3[nH]2)C1 [PINOMETOSTAT]

IC50 ([1]; read-out: IC50): < 0.1 nM
TIME [2]: > 5 h
IC50 [3]: 3 nM
IC50 [4]: 17 nM
IC50 (MV4-11): 5 nM
Ki [5]: 0.002 nM
SMILES: Cc1ncccc1-c1c(Cl)sc2ccc(NC(=O)NCC(=O)NCCCN(C)[C@@H]3CCCN(c4ncnc5[nH]ccc45)C3)cc12

IC50 ([1]; read-out: IC50): 4 nM
SMILES: O=C(CNC(=O)Nc1ccc2ccn(-c3ccccc3Cl)c2c1)NCCCN[C@@H]1CCCN(c2ncnc3[nH]ccc23)C1

IC50 ([1]; read-out: IC50): 4 nM
SMILES: O=C(CNC(=O)Nc1ccc2ccn(-c3ccccc3Cl)c2c1)NCCCCN[C@@H]1CCCN(c2ncnc3[nH]ccc23)C1

IC50 ([1]; read-out: IC50): 100000 nM
SMILES: Nc1ncnc2c1ncn2[C@@H]1O[C@H](CO)[C@@H](O)[C@H]1O [ADENOSINE]

IC50 ([1]; read-out: pIC50 (converted)): 7940 nM
SMILES: NC(=O)CNC(=O)Nc1ccc2ccn(-c3ccccc3Cl)c2c1

Source: ChEMBL document CHEMBL4002645, “Discovery of Potent, Selective, and Structurally Novel Dot1L Inhibitors by a Fragment Linking Approach” (ACS Med Chem Lett, 2017)
